Values joined by “and” are separate entries in the source; they are usually repeats but may differ in a detail not shown here. Identical values can stand only once. “Also recorded” adds a separate entry of the source.
Key:
[1] = test system: early and late adolescent SI mice; assay: Resident-intruder test, aggressive behavior of socially isolated (SI) mice; type: in vivo, Swiss-Webster mice; conditions: for reduction in the number of attacks vs. basal value / EC50 dose, decrease of aggression: 60 min before test; for “Non-responders” Early SI mice (%) / “Non-responders” Late SI mice (%): decrease of aggression <=30% vs basal; for EC50 dose, decrease of aggression: i.p.
Description: Male Swiss-Webster mice (Harlan Breeders) (18-30 g body weight), maintained under a 12-h dark/light cycle with food and water ad libitum were used for all experiments. Mice were housed individually in a cage of dimensions 24 cm×17 cm×12 cm. For these experiments, two mice experimental groups were used for the study of drug effect in different age conditions. The first group was isolated at 21 days (“early adolescent SI mice,” PND 21), while the second group at 45 days (“late adolescent SI mice,” PND 45). The animals were exposed to behavioral testing after 6 weeks of isolation. The vivarium temperature was kept at 24° C. and the humidity near 65%.
[…] All the drugs were dissolved in saline solution containing 0.5% Tween-80 (Sigma Aldrich, St. Louis, Mo., United States), and were injected intraperitoneally (i.p.), 60 min before behavioral tests.
To test aggression, a male intruder mouse of the same strain as the resident mouse, was placed in a resident home cage (24 cm×17 cm×12 cm) and resident-intruder interactions were videotaped for 10 min. Aggressive behavior of SI mice was characterized by an initial pattern of exploratory activity around the intruder, followed by rearing and tail rattle, accompanied within a few seconds by wrestling and/or a violent biting attacks. The total number of wrestling and attacks during the 10 min observation period was measured as previously described (Pinna et al., 2003, 2005), 60 min after drug administration. For every drug studied, SI mice were first exposed to three behavioral sessions, and then the average of basal aggression level for every single SI mouse was calculated; 2 days later, aggression levels following treatment were tested. Treated animals showing a reduction of the number of attacks less than 30% vs. the respective basal control values were considered as “low- to non-responders.”
Results are presented as means±SEMs unless otherwise indicated. Student's t-test, one-way ANOVA and two-way ANOVA repeated measures followed by Bonferroni post hoc test were performed to analyze experimental data; significance was set at p<0.05. EC50 values were calculated from dose-response curves analyzed by the “quantal dose-response: probits test” using the computer program of Tallarida and Murray equipped with a statistical package (Tallarida and Murray, 1987). Statistical comparisons among the different ECsos were performed with the “cohort package software.” (available at cohort.com).

[2] = test system: early and late adolescent SI mice; assay: Locomotor activity test; type: in vivo, Swiss-Webster mice; conditions: all doses tested, i.p., 60 min before test, 10 min recording
[3] = test system: early and late adolescent SI mice; conditions: i.p., previously established in Pinna and Rasmusson, 2014; cited from earlier work
[4] = test system: post-partum depression patients; conditions: two-day course of intravenous infusion; cited from earlier work
[5] = early SI mice, single dose 2.5 mg/kg
[6] = early adolescent SI mice (PND 21)
[7] = late SI mice, single dose 2.5 mg/kg (given in mg)
[8] = late adolescent SI mice (PND 45)
[9] = early SI mice, single dose, dose not stated (FIG. 5 legend)
[10] = late SI mice, single dose, dose not stated (FIG. 5 legend)

With `C=CCO[C@@H]1CC[C@]2(C)C3CC[C@@]4(C)C(CC[C@@H]4C(C)=O)C3CC[C@H]2C1` (stereo partly shown) [BR351] the “difference of anti-aggressive effect, late compared with early SI mice” value (“difference of anti-aggressive effect” for short) ([1]; 5 mg/kg i.p., trend, p=0.0801) was “+179%”, the “reduction in the number of attacks vs. basal value” (“reduction in the number” for short) ([1]; early SI mice (PND 21), 5 mg/kg i.p.) was −56% and the ““Non-responders” Early SI mice (%)” value ([1]; early SI mice, single dose 1 mg/kg (given in mg)) was 50.0%. For the same molecule, the ““Non-responders” Early SI mice (%)” value ([1]; early SI mice, single dose 2.5 mg/kg (given in mg)) was 20.0%, the ““Non-responders” Early SI mice (%)” value ([1]; early SI mice, single dose 5 mg/kg (given in mg), 5 mg/kg) was 13.33% and 13.3% and the “duration of anti-aggressive effect (time until aggression rebounded to basal values)” value ([1]; early SI mice, single dose 1 mg/kg) was “rapidly extinguished”. The “duration of anti-aggressive effect (time until aggression rebounded to basal values)” value [1, 5] was 5 days, the “duration of anti-aggressive effect (time until aggression rebounded to basal values)” value ([1]; early SI mice, single dose 5 mg/kg) was 3 days and the “EC50 dose, decrease of aggression” value [1, 6] was 4.5 mg/kg. The “reduction in the number” value ([1]; late SI mice (PND 45), 5 mg/kg i.p.) was −80%, the ““Non-responders” Late SI mice (%)” value ([1]; late SI mice, single dose 1 mg/kg (given in mg)) was 54.6% and the ““Non-responders” Late SI mice (%)” value [1, 7] was 40.0%. For the same molecule, the ““Non-responders” Late SI mice (%)” value ([1]; late SI mice, single dose 5 mg/kg (given in mg), 5 mg/kg) was 8.33% and 8.3%, the “duration of anti-aggressive effect (time until aggression rebounded to basal values)” value ([1]; late SI mice, single dose 1 mg/kg) was 1 days and the “duration of anti-aggressive effect (time until aggression rebounded to basal values)” value ([1]; late SI mice, single dose 2.5 mg/kg) was 5 days. The “duration of anti-aggressive effect (time until aggression rebounded to basal values)” value ([1]; late SI mice, single dose 5 mg/kg) was 5 days, the “EC50 dose, decrease of aggression” value [1, 8] was 3.75 mg/kg and the “effect on locomotor (exploratory) activity” value (from here on “effect on locomotor”) [2] was “failed to alter locomotion patterns”.

In the case of `C=CCO[C@H]1CC[C@]2(C)C3CC[C@@]4(C)C(CC[C@@H]4C(C)=O)C3CC[C@H]2C1` (stereo partly shown) [BR297], the “difference of anti-aggressive effect” value ([1]; 2.5 mg/kg i.p., trend, p=0.108) is reported as “+235%”, the “reduction in the number” value ([1]; early SI mice (PND 21), 0.3125 mg/kg i.p.) is reported as −59% and the “reduction in the number” value ([1]; early SI mice (PND 21), 0.625 mg/kg i.p.) is reported as −61%. For the same molecule, the “reduction in the number” value ([1]; early SI mice (PND 21), 2.5 mg/kg i.p.) was −70%, the ““Non-responders” Early SI mice (%)” value ([1]; early SI mice, single dose 0.3125 mg/kg (given in mg)) was 30.0% and the ““Non-responders” Early SI mice (%)” value ([1]; early SI mice, single dose 0.625 mg/kg (given in mg)) was 21.4%. The ““Non-responders” Early SI mice (%)” value ([1]; early SI mice, single dose 2.5 mg/kg (given in mg), 2.5 mg/kg) was 6.25% and 6.3%, the “duration of anti-aggressive effect (time until aggression rebounded to basal values)” value ([1]; early SI mice, single dose 0.3125 mg/kg) was 3 days and the “duration of anti-aggressive effect (time until aggression rebounded to basal values)” value ([1]; early SI mice, single dose 0.625 mg/kg) was 7 days. The “duration of anti-aggressive effect (time until aggression rebounded to basal values)” value [1, 5] was 7 days, the “duration of anti-aggressive effect (time until aggression rebounded to basal values)” value [1, 9] was 7 days and the “EC50 dose, decrease of aggression” value [1, 6] was 0.25 mg/kg. For the same molecule, the “reduction in the number” value ([1]; late SI mice (PND 45), 0.3125 mg/kg i.p.) was −60%, the “reduction in the number” value ([1]; late SI mice (PND 45), 0.625 mg/kg i.p.) was −63% and the “reduction in the number” value ([1]; late SI mice (PND 45), 2.5 mg/kg i.p.) was −91%. For the same molecule, the ““Non-responders” Late SI mice (%)” value ([1]; late SI mice, single dose 0.3125 mg/kg (given in mg)) was 18.2%, the ““Non-responders” Late SI mice (%)” value ([1]; late SI mice, single dose 0.625 mg/kg (given in mg)) was 18.2% and the ““Non-responders” Late SI mice (%)” value [1, 7] was 0%. For the same molecule, the “duration of anti-aggressive effect (time until aggression rebounded to basal values)” value ([1]; late SI mice, single dose 0.3125 mg/kg) was 3 days, the “duration of anti-aggressive effect (time until aggression rebounded to basal values)” value ([1]; late SI mice, single dose 0.625 mg/kg) was 9 days and the “duration of anti-aggressive effect (time until aggression rebounded to basal values)” value [1, 10] was 9 days. For the same molecule, the “EC50 dose, decrease of aggression” value [1, 8] was 0.25 mg/kg and the “effect on locomotor” value [2] was “failed to alter locomotion patterns”.

For `CCCCCCCCCCCCCCCC(=O)NCCO` [PEA, N-palmitoylethanolamine], the “effect on locomotor” value [2] was “not altered”.

With `CC(=O)[C@H]1CC[C@H]2[C@@H]3CC[C@H]4C[C@](C)(O)CC[C@]4(C)[C@H]3CC[C@]12C` [GNX, ganaxolone, reference compound] the “difference of anti-aggressive effect” value ([1]; 10 mg/kg i.p.) was “+197%”, the “reduction in the number” value ([1]; early SI mice (PND 21), 10 mg/kg i.p.) was −72% and the ““Non-responders” Early SI mice (%)” value ([1]; early SI mice, single dose 10 mg/kg (given in mg), 10 mg/kg) was 25%. The “reduction in the number” value ([1]; late SI mice (PND 45), 10 mg/kg i.p.) was −46%, the ““Non-responders” Late SI mice (%)” value ([1]; late SI mice, single dose 10 mg/kg (given in mg), 10 mg/kg) was 15.38% and 15.4% and the “duration of anti-aggressive effect (time until aggression rebounded to basal values)” value ([1]; late SI mice, single dose 10 mg/kg (EC50 dose)) was 5 days. For the same molecule, the “effect on locomotor” value [2] was “failed to alter locomotion patterns” and the EC50 dose [3] was 10 mg/kg.

For `CC(=O)C1CC[C@H]2[C@@H]3CCC4C[C@H](O)CC[C@]4(C)[C@H]3CC[C@]12C` (stereo partly shown) [Allo, allopregnanolone], the “duration of symptom improvement” value [4] is given as 30 days, the “remission of post-partum depression, patients” value [4] is given as 70% and the “time to symptom improvement” value [4] is given as 60 h.

In the case of `CNCC[C@H](Oc1ccc(C(F)(F)F)cc1)c1ccccc1` [S-FLX, S-fluoxetine, reference compound], the “duration of anti-aggressive effect (time until aggression rebounded to basal values)” value ([1]; early SI mice, single dose 0.375 mg/kg) is reported as 1 days, the “duration of anti-aggressive effect (time until aggression rebounded to basal values)” value ([1]; early SI mice, single dose 0.75 mg/kg) is reported as 3 days and the “duration of anti-aggressive effect (time until aggression rebounded to basal values)” value [1, 9] is reported as 3 days. For the same molecule, the “reduction in the number” value ([1]; late SI mice (PND 45), 0.75 mg/kg i.p.) was −52%, the “duration of anti-aggressive effect (time until aggression rebounded to basal values)” value ([1]; late SI mice, single dose 0.375 mg/kg) was 1 days and the “duration of anti-aggressive effect (time until aggression rebounded to basal values)” value ([1]; late SI mice, single dose 0.75 mg/kg) was 3 days. The “duration of anti-aggressive effect (time until aggression rebounded to basal values)” value [1, 10] was 3 days and the “effect on locomotor” value [2] was “did not reduce exploratory activity; also recorded: failed to alter locomotion patterns”.
